The text below walks through data of US10927125B2, “Substituted cinnolines as inhibitors of KRAS G12C” (Araxes Pharma LLC, priority 2013, dated 2021).

Molecules are shown by their SMILES.

T1 sequence (P01116 1-169 isoform P01116-2 G12C): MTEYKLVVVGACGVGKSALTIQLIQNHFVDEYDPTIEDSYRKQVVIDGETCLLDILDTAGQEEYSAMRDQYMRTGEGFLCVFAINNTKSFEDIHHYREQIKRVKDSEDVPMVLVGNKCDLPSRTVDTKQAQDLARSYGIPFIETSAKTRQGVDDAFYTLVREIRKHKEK

The first assay concerns the target T1, KRAS G12C 1-169, his-tagged protein, GDP-loaded (Homo sapiens, UniProt P01116, G12C).
T1 construct: KRAS G12C 1-169, his-tagged protein, GDP-loaded
Put plainly: Biochemical assay: covalent binding of compounds to KRAS G12C, analysed by mass spectrometry. The note with it: binding measured at 30 min (compounds 247-375). The protocol:
Compounds were tested for activity as follows:
Compounds were diluted to 50× final test concentration in DMSO in 96-well storage plates. […] Reactions were mixed carefully and thoroughly by pipetting up/down with a 200 μl multi-channel pipettor. The plate was sealed well with aluminum plate seal, and stored in drawer at room temperature for 30 min, 2 hour or 24 hrs. 51 μl of 2% formic acid (Fisher cat # A117) in DI H2O was then added to each well followed by mixing with a pipette. The plate was then resealed with aluminum seal and stored on dry ice until analyzed as described below.
The above described assays were analyzed by mass spectrometry according to the following procedure:
The MS instrument is set to positive polarity, 2 GHz resolution, and low mass (1700) mode and allowed to equilibrate for 30 minutes. The instrument is then calibrated, switched to acquisition mode and the appropriate method loaded.
After another 30 minute equilibration time, a blank batch (i.e., buffer) is run to ensure equipment is operating properly. The samples are thawed at 37° C. for 10 minutes, briefly centrifuged, and transfer to the bench top. Wells A1 and H12 are spiked with 1 uL 500 uM internal standard peptide, and the plates centrifuged at 2000×g for 5 minutes. The method is then run and masses of each individual well recorded.
The masses (for which integration data is desired) for each well are pasted into the platemap and exported from the analysis. Masses for the internal standards are exported as well. The data at 50 ppm is extracted for the +19 charge state, and identity of well A1 is assigned using the internal standard spike and integrated. Peak data is exported as a TOF list and the above steps are repeated individually, for the +20, 21, 22, 23, 24, and 25 charge states.
For `C=CC(=O)N1CCN(c2nc(NCCc3nccn3C)nc3c(F)c(-c4c(C)ccc5[nH]ncc45)c(Cl)cc23)CC1` [Compound 352, 1-(4-(6-chloro-8-fluoro-2-(2-(1-methyl-1H-imidazol-2-yl)ethylamino)-7-(5-methyl-1H-indazol-4-yl)quinazolin-4-yl)piperazin-1-yl)prop-2-en-1-one], the Binding % entry was “++++ (++++ indicates binding activity greater than 75%)”.

With `C=CC(=O)N1CCN(c2ncnc3cc(-c4cc(C)cc5[nH]ncc45)c(Cl)cc23)CC1` [Compound 262, 1-(4-(6-chloro-7-(6-methyl-1H-indazol-4-yl)quinazolin-4-yl)piperazin-1-yl)prop-2-en-1-one], the Binding % entry was “+ (+ indicates binding activity from 5% to 25%)”. The same measure, in the same setting: the same measure for `C=CC(=O)N1CCN(c2ncnc3c(F)c(-c4cc(O)cc5ccccc45)c(Cl)cc23)CC1CO` (centres unmarked) [Compound 256, 1-(4-(6-chloro-8-fluoro-7-(3-hydroxynaphthalen-1-yl)quinazolin-4-yl)-2-(hydroxymethyl)piperazin-1-yl)prop-2-en-1-one]: “+++ (+++ indicates binding activity greater than 50% and up to 75%)”; for `C/C=C/C(=O)N1CCN(c2ncnc3c(F)c(-c4cc(O)cc5ccccc45)c(Cl)cc23)CC1` [Compound 328, (E)-1-(4-(6-chloro-8-fluoro-7-(3-hydroxynaphthalen-1-yl)quinazolin-4-yl)piperazin-1-yl)but-2-en-1-one]: “+ (+ indicates binding activity from 5% to 25%)”.

In the case of `C=CC(=O)N1CCN(c2nc(N(C)CCN(C)C)nc3c(F)c(-c4cc(O)cc5ccccc45)c(Cl)cc23)CC1` [Compound 361, 1-(4-(6-chloro-2-((2-(dimethylamino)ethyl)(meth-yl)amino)-8-fluoro-7-(3-hydroxynaphthalen-1-yl)quinazolin-4-yl)piperazin-1-yl)prop-2-en-1-one], the Binding % entry is “++++ (++++ indicates binding activity greater than 75%)”. On the same count and under the same terms, the entry for `C=CC(=O)N1CCN(c2nc(Oc3cnn(C)c3)nc3c(F)c(-c4c(C)ccc5[nH]ncc45)c(Cl)cc23)CC1` [Compound 375, 1-(4-(6-chloro-8-fluoro-7-(5-methyl-1H-indazol-4-yl)-2-(1-methyl-1H-pyrazol-4-yloxy)quinazolin-4-yl)piperazin-1-yl)prop-2-en-1-one] is “+++ (+++ indicates binding activity greater than 50% and up to 75%)”. In the case of `C=CC(=O)N1CCN(c2ncnc3c(F)c(-c4c(F)ccc5c(C)n[nH]c45)c(Cl)cc23)CC1` [Compound 359, 1-(4-(6-chloro-8-fluoro-7-(6-fluoro-3-methyl-1H-indazol-7-yl)quinazolin-4-yl)piperazin-1-yl)prop-2-en-1-one], the Binding % entry was “++++ (++++ indicates binding activity greater than 75%)”. Still for that read-out and setting: the entry for `C=CC(=O)N1CCN(c2cnnc3cc(-c4c(C)ccc5[nH]ncc45)c(C(F)(F)F)cc23)CC1` [Compound 350, 1-(4-(7-(5-methyl-1H-indazol-4-yl)-6-(trifluoromethyl)cinnolin-4-yl)piperazin-1-yl)prop-2-en-1-one] is “++++ (++++ indicates binding activity greater than 75%)”; for `C=CC(=O)N1CCN(c2nc(OCCN(C)C)nc3c(F)c(-c4c(C)ccc5[nH]ncc45)c(Cl)cc23)CC1C` (centres unmarked) [Compound 367, 1-(4-(6-chloro-2-(2-(dimethylamino)ethoxy)-8-fluoro-7-(5-methyl-1H-indazol-4-yl)quinazolin-4-yl)-2-methylpiperazin-1-yl)prop-2-en-1-one] it is “++++ (++++ indicates binding activity greater than 75%)”. Regarding `C=CC(=O)N1CCN(c2nc(NC3CCN(C)C3)nc3c(F)c(-c4c(C)ccc5[nH]ncc45)c(Cl)cc23)CC1` (centres unmarked) [Compound 372, 1-(4-(6-chloro-8-fluoro-7-(5-methyl-1H-indazol-4-yl)-2-(1-methylpyrrolidin-3-ylamino)quinazolin-4-yl)piperazin-1-yl)prop-2-en-1-one], the Binding % entry is “+++ (+++ indicates binding activity greater than 50% and up to 75%)”. For the compound `C=CC(=O)N1CCN(c2ncnc3c(OC)c(-c4cc(O)cc5ccccc45)c(Cl)cc23)CC1` [Compound 348, 1-(4-(6-chloro-7-(3-hydroxynaphthalen-1-yl)-8-methoxyquinazolin-4-yl)piperazin-1-yl)prop-2-en-1-one], the Binding % entry is “++++ (++++ indicates binding activity greater than 75%)”. Turning to `C=CC(=O)N1CCN(c2ncnc3c(F)c(-c4c(O)cccc4F)c(Cl)cc23)CC1` [Compound 353, (S)-1-(4-(6-chloro-8-fluoro-7-(2-fluoro-6-hydroxyphenyl)quinazolin-4-yl)piperazin-1-yl)prop-2-en-1-one], the Binding % result is “++++ (++++ indicates binding activity greater than 75%)”. `C=CC(=O)N1CCN(c2ncnc3c(F)c(-c4cc(O)cc5ccccc45)c(Cl)cc23)CC1CN(C)C` (centres unmarked) [Compound 346, 1-(4-(6-chloro-8-fluoro-7-(3-hydroxynaphthalen-1-yl)quinazolin-4-yl)-2-((dimethylamino)meth-yl)piperazin-1-yl)prop-2-en-1-one]: the Binding % entry is recorded as “++++ (++++ indicates binding activity greater than 75%)”.

The same assay, now with this note: binding measured at 2 h (compounds 48-246).
With `C=CC(=O)N1CCN(c2ncnc3cc(-c4cc(O)c(F)cc4F)c(Cl)cc23)CC1` [Compound 206, 1-(4-(6-chloro-7-(2,4-difluoro-5-hydroxyphenyl)quinazolin-4-yl)piperazin-1-yl)prop-2-en-1-one], the Binding % entry was “+++ (+++ indicates binding activity greater than 50% and up to 75%)”.

Regarding `C=CC(=O)N1CCN(c2nc(C)nc3cc(Cl)c(-c4ccc(Cl)cc4)cc23)CC1` [Compound 50, 1-(4-(7-chloro-6-(4-chlorophenyl)-2-methylquinazolin-4-yl)piperazin-1-yl)prop-2-en-1-one], the Binding % result is recorded as “+ (+ indicates binding activity from 5% to 25%)”.

For the compound `C=CC(=O)N1CCN(c2cnnc3cc(-c4ccccc4F)c(Cl)cc23)CC1` [Compound 159, 1-(4-(6-chloro-7-(2-fluorophenyl)cinnolin-4-yl)piperazin-1-yl)prop-2-en-1-one], the Binding % result is “+++ (+++ indicates binding activity greater than 50% and up to 75%)”.

Take `C#Cc1cnc2cc(-c3ccccc3F)c(Cl)cc2c1N1CCN(C(=O)C=C)CC1` [Compound 215, 1-(4-(6-chloro-3-ethynyl-7-(2-fluorophenyl)quinolin-4-yl)piperazin-1-yl)prop-2-en-1-one]: the Binding % entry is “++ (++ indicates binding activity greater than 25% and up to 50%)”. Consider `C=CC(=O)N1CCC(n2c(=O)cnc3cc(-c4ccc(F)cc4F)c(Cl)cc32)CC1` [Compound 151, 1-(1-acryloylpiperidin-4-yl)-7-chloro-6-(2,4-difluorophenyl)quinoxalin-2(1H)-one], for which the Binding % entry is “+ (+ indicates binding activity from 5% to 25%)”. Still for that read-out and setting: the entry for `C=CC(=O)N1CCN(c2ncnc3cc(-c4c(O)cccc4F)c(Cl)cc23)CC1` [Compound 138, 1-(4-(6-chloro-7-(2-fluoro-6-hydroxyphenyl)quinazolin-4-yl)piperazin-1-yl)prop-2-en-1-one] is “++++ (++++ indicates binding activity greater than 75%)”.

Staying with this assay, now noted: binding measured at 24 h (compounds 1-47).
As for `C=CC(=O)N1CCN(c2ncnc3cc(Cl)c(-c4ccc(Br)cc4)cc23)CC1` [Compound 40, 1-(4-(6-(4-bromophenyl)-7-chloroquinazolin-4-yl)piperazin-1-yl)prop-2-en-1-one], the Binding % result is “+++ (+++ indicates binding activity greater than 50% and up to 75%)”.
